Source: PubChem BioAssay AID330 (DTP/NCI, 2004)
“And” between values parts separate entries of the source, which are not always exact repeats. Equal values may be shown once. Toxic doses and inconclusive results are not listed. How the source made its calls: active means survival T/C of 150% or more; inactive means T/C below 125% in these data.

Tested on: P388 leukemia ip, CD2F1 mice, survival T/C
Experiment: NCI In Vivo Anticancer Drug Screen. Data for tumor model P388 Leukemia (intraperitoneal) in CD2F1 (CDF1) mice
Settings: endpoint: median survival time, higher = longer survival
How it was run: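 Mice carrying the transplanted tumor received test compound or vehicle. Survival was recorded in each group, and the value is the treated-group measurement divided by that of the vehicle-treated control group.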

[1] = dose: 50.0 mg/kg/injection, schedule: Q01DX005 (ip), vehicle: Klucel (hydroxypropylcellulose) (HPC)
[2] = dose: 100.0 mg/kg/injection, schedule: Q01DX005 (ip), vehicle: Klucel (hydroxypropylcellulose) (HPC)
[3] = dose: 200.0 mg/kg/injection, schedule: Q01DX005 (ip), vehicle: Klucel (hydroxypropylcellulose) (HPC)
[4] = dose: 6.25 mg/kg/injection, schedule: Q01DX005 (ip), vehicle: Klucel (hydroxypropylcellulose) (HPC)
[5] = dose: 12.5 mg/kg/injection, schedule: Q01DX005 (ip), vehicle: Klucel (hydroxypropylcellulose) (HPC)
[6] = dose: 25.0 mg/kg/injection, schedule: Q01DX005 (ip), vehicle: Klucel (hydroxypropylcellulose) (HPC)
[7] = dose: 50.0 mg/kg/injection, schedule: Q01DX009 (ip), vehicle: saline
[8] = dose: 100.0 mg/kg/injection, schedule: Q01DX009 (ip), vehicle: saline
[9] = dose: 50.0 mg/kg/injection, schedule: Q01DX005 (ip), vehicle: saline with Tween-80
[10] = dose: 100.0 mg/kg/injection, schedule: Q01DX005 (ip), vehicle: saline with Tween-80
[11] = dose: 200.0 mg/kg/injection, schedule: Q01DX005 (ip), vehicle: saline with Tween-80
[12] = dose: 100.0 mg/kg/injection, schedule: Q04DX002 (ip), vehicle: Klucel (hydroxypropylcellulose) (HPC)
[13] = dose: 200.0 mg/kg/injection, schedule: Q04DX002 (ip), vehicle: Klucel (hydroxypropylcellulose) (HPC)
[14] = dose: 3.12 mg/kg/injection, schedule: Q01DX005 (ip), vehicle: Klucel (hydroxypropylcellulose) (HPC)

Measured: T/C

CCCCCCCC(=O)O[C@H]1[C@H]2[C@@H](CC1(C)C)C(=O)[C@]13O[C@H]1C(=O)[C@]1(CO1)[C@]23C
inactive: dose: 2.2 mg/kg/injection, schedule: Q01DX009 (ip), vehicle: saline with Tween-80 118 % of control | dose: 5.0 mg/kg/injection, schedule: Q01DX009 (ip), vehicle: saline with Tween-80 104 % of control and 122 % of control | dose: 7.5 mg/kg/injection, schedule: Q01DX009 (ip), vehicle: saline with Tween-80 118 % of control | dose: 10.0 mg/kg/injection, schedule: Q01DX009 (ip), vehicle: saline with Tween-80 95 % of control | dose: 10.0 mg/kg/injection, schedule: Q01DX009 (ip), vehicle: saline 105 % of control

CCn1c(=O)c(C#N)c2n(CC)c3cc(C)c(C)cc3n2c1=O
inactive: dose: 60.0 mg/kg/injection, schedule: Q01DX005 (ip), vehicle: saline with Tween-80 90 % of control | dose: 120.0 mg/kg/injection, schedule: Q01DX005 (ip), vehicle: saline with Tween-80 86 % of control | dose: 240.0 mg/kg/injection, schedule: Q01DX005 (ip), vehicle: saline with Tween-80 86 % of control

O=C(On1nnc2ccccc2c1=O)c1ccccc1
inactive: dose: 12.5 mg/kg/injection, schedule: Q01DX009 (ip), vehicle: distilled water + Tween-80 100 % of control | dose: 25.0 mg/kg/injection, schedule: Q01DX009 (ip), vehicle: distilled water + Tween-80 102 % of control | dose: 50.0 mg/kg/injection, schedule: Q01DX009 (ip), vehicle: distilled water + Tween-80 94 % of control | dose: 100.0 mg/kg/injection, schedule: Q01DX009 (ip), vehicle: distilled water + Tween-80 106 % of control | dose: 200.0 mg/kg/injection, schedule: Q01DX009 (ip), vehicle: distilled water + Tween-80 103 % of control

CSC1=Nc2ccccc2SC(c2ccccc2)C1c1ccccc1 (stereo unspecified)
inactive: [1] 99 % of control | [2] 95 % of control | [3] 96 % of control

Nc1nc(N)nc(Nc2ccc(-c3cc4ccc(-c5ncc[nH]5)cc4[nH]3)cc2)n1
active: dose: 30.0 mg/kg/injection, schedule: Q01DX005 (ip), vehicle: Klucel (hydroxypropylcellulose) (HPC) 153 % of control | dose: 120.0 mg/kg/injection, schedule: Q01DX005 (ip), vehicle: Klucel (hydroxypropylcellulose) (HPC) 164 % of control and 171 % of control | dose: 240.0 mg/kg/injection, schedule: Q01DX005 (ip), vehicle: Klucel (hydroxypropylcellulose) (HPC) 183 % of control and 188 % of control

CCOC(=O)NC(C)(C)CN(C(=O)OCC)C(C)(C)CO
inactive: dose: 50.0 mg/kg/injection, schedule: Q04DX003 (ip), vehicle: saline 100 % of control | dose: 100.0 mg/kg/injection, schedule: Q04DX003 (ip), vehicle: saline 109 % of control | dose: 200.0 mg/kg/injection, schedule: Q04DX003 (ip), vehicle: saline 109 % of control

CN(C)CCCSc1ccccc1NC1=C(Cl)C(=O)C(Nc2ccccc2SCCCN(C)C)=C(Cl)C1=O
inactive: [4] 100 % of control | [5] 106 % of control | [6] 98 % of control | [1] 106 % of control | [2] 108 % of control | [3] 104 % of control

CCCCCCOC(=O)C1=C(NC)CCC1
inactive: [7] 106 % of control | [8] 119 % of control

Cc1cc(=O)n(-c2ccc(-c3ccc(-n4c(C)c(C(=O)O)c(C)cc4=O)cc3)cc2)c(C)c1C(=O)O
inactive: [9] 102 % of control | [10] 100 % of control | [11] 106 % of control

c1ccc([P+](COC[P+](c2ccccc2)(c2ccccc2)c2ccccc2)(c2ccccc2)c2ccccc2)cc1
inactive: dose: 6.25 mg/kg/injection, schedule: Q01DX009 (ip), vehicle: Klucel (hydroxypropylcellulose) (HPC) 92 % of control | dose: 12.5 mg/kg/injection, schedule: Q01DX009 (ip), vehicle: Klucel (hydroxypropylcellulose) (HPC) 94 % of control

O=[N+]([O-])c1ccc(S(=O)C2CCCCC2Cl)c([N+](=O)[O-])c1 (stereo unspecified)
inactive: [12] 110 % of control | [13] 113 % of control

C[C@]12C=CC(=O)C=C1CC[C@@H]1[C@@H]2[C@@H](O)C[C@@]2(C)[C@H]1CC[C@]2(O)C(=O)COC(=O)CCC1CCCC1
inactive: dose: 100.0 mg/kg/injection, schedule: Q04DX003 (ip), vehicle: saline with Tween-80 104 % of control | dose: 200.0 mg/kg/injection, schedule: Q04DX003 (ip), vehicle: saline with Tween-80 100 % of control | dose: 400.0 mg/kg/injection, schedule: Q04DX003 (ip), vehicle: saline with Tween-80 91 % of control

Oc1ccc(C2c3ccccc3Oc3ccccc32)cc1
inactive: dose: 50.0 mg/kg/injection, schedule: Q01DX009 (ip), vehicle: saline with Tween-80 101 % of control | dose: 100.0 mg/kg/injection, schedule: Q01DX009 (ip), vehicle: saline with Tween-80 111 % of control | dose: 200.0 mg/kg/injection, schedule: Q01DX009 (ip), vehicle: saline with Tween-80 118 % of control

C[CH2][Sn]([CH2]C)([n]1cnc2ccccc21)[n]1cnc2ccccc21
inactive: dose: 1.56 mg/kg/injection, schedule: Q01DX005 (ip), vehicle: Klucel (hydroxypropylcellulose) (HPC) 120 % of control | [14] 123 % of control | [4] 109 % of control and 122 % of control

OCNC(=S)c1ccccc1
inactive: [9] 105 % of control | [10] 105 % of control

S=C(N\N=C/C(/C=C/c1ccccc1)=N\NC(=S)Nc1ccc(Cl)cc1)Nc1ccc(Cl)cc1
inactive: dose: 400.0 mg/kg/injection, schedule: Q01DX001 (ip), vehicle: Klucel (hydroxypropylcellulose) (HPC) 88 % of control

COc1ccc(C(Nc2ccccn2)c2cc(C(C)(C)C)c(O)c(C(C)(C)C)c2)cc1 (stereo unspecified)
inactive: [9] 88 % of control | [10] 91 % of control | [11] 95 % of control

C=C1CCC2C(OC(=O)C2(O)COC(C)=O)C2C(=C)C(OC(C)=O)CC12 (stereo unspecified)
inactive: dose: 9.38 mg/kg/injection, schedule: Q01DX005 (ip), vehicle: Klucel (hydroxypropylcellulose) (HPC) 106 % of control | dose: 18.75 mg/kg/injection, schedule: Q01DX005 (ip), vehicle: Klucel (hydroxypropylcellulose) (HPC) 100 % of control | dose: 37.5 mg/kg/injection, schedule: Q01DX005 (ip), vehicle: Klucel (hydroxypropylcellulose) (HPC) 98 % of control | dose: 75.0 mg/kg/injection, schedule: Q01DX005 (ip), vehicle: Klucel (hydroxypropylcellulose) (HPC) 100 % of control | dose: 150.0 mg/kg/injection, schedule: Q01DX005 (ip), vehicle: Klucel (hydroxypropylcellulose) (HPC) 99 % of control

CC(C=NC1CCCCC1)c1ccccc1 (stereo unspecified)
inactive: [7] 96 % of control | [8] 87 % of control | dose: 200.0 mg/kg/injection, schedule: Q01DX009 (ip), vehicle: saline 102 % of control

O=c1ccn(C2OC(COC(c3ccccc3)(c3ccccc3)c3ccccc3)C(OC(c3ccccc3)(c3ccccc3)c3ccccc3)C2O)c(=O)[nH]1 (stereo unspecified)
inactive: [6] 99 % of control | [1] 95 % of control | [2] 105 % of control | [3] 97 % of control

C[n+]1cc(-c2ccccc2)cc(-c2ccccc2)c1
inactive: [14] 104 % of control | dose: 3.12 mg/kg/injection, schedule: Q01DX005 (ip), vehicle: saline 103 % of control | [4] 109 % of control | dose: 6.25 mg/kg/injection, schedule: Q01DX005 (ip), vehicle: saline with Tween-80 105 % of control | dose: 6.25 mg/kg/injection, schedule: Q01DX005 (ip), vehicle: saline 97 % of control | [5] 104 % of control | dose: 12.5 mg/kg/injection, schedule: Q01DX005 (ip), vehicle: saline with Tween-80 100 % of control | dose: 12.5 mg/kg/injection, schedule: Q01DX005 (ip), vehicle: saline 96 % of control | dose: 25.0 mg/kg/injection, schedule: Q01DX005 (ip), vehicle: saline with Tween-80 96 % of control

O=C1SC(Nc2ccc([N+](=O)[O-])cc2)/C(=N\N=C2/C(Nc3ccc([N+](=O)[O-])cc3)SC(=O)N2Cc2ccccc2)N1Cc1ccccc1 (stereo unspecified)
inactive: [12] 95 % of control | [13] 95 % of control | dose: 400.0 mg/kg/injection, schedule: Q04DX002 (ip), vehicle: Klucel (hydroxypropylcellulose) (HPC) 97 % of control
